Data as given in patent publication US4272437A, “Antibacterial agents, and 4-thio azetidinone intermediates” (priority 1979, dated 1981).
Values after ≈ are worked out from the molar mass of the structure shown.

Columns and labels:
Str. pneumoniae A-9585 = test: MIC, tube dilution, Streptococcus pneumoniae A9585; format: cell-based; settings: Str. pneumoniae A9585; overnight 37° C., Nutrient Broth
Text: (§1) Representative compounds of the present invention were subjected to in vitro antibiotic screening against a variety of microorganisms.

Str. pyogenes A-9604 = test: MIC, tube dilution, Streptococcus pyogenes A9604; format: cell-based; settings: Str. pyogenes A9604; overnight 37° C., Nutrient Broth
Text: as §1

Staph. aureus A-9537 = test: MIC, tube dilution, Staphylococcus aureus A9537; format: cell-based; settings: Staph. aureus A9537; overnight 37° C., Nutrient Broth
Text: as §1

[1] = test system: Staph. aureus A-9537 and 50% serum; test: MIC, tube dilution, Staph. aureus A9537 + 50% serum; format: cell-based, Staphylococcus aureus; settings: overnight 37° C.
Text: as §1

[2] = test system: Staph. aureus (Pen-Res) A-9606; test: MIC, tube dilution, Staphylococcus aureus A9606 (Pen-Res); format: cell-based; settings: Staphylococcus aureus, Staph. aureus A9606 (Pen-Res); overnight 37° C.; read-out: Minimum Inhibitory Concentration (M.I.C.)
Text: as §1

[3] = test system: Staph. aureus (Meth-Res) A-15097; test: MIC, tube dilution, Staphylococcus aureus A15097 (Meth-Res); format: cell-based; settings: Staphylococcus aureus, Staph. aureus A15097 (Meth-Res); overnight 37° C.; read-out: Minimum Inhibitory Concentration (M.I.C.)
Text: as §1

Str. faecalis A-20688 = test: MIC, tube dilution, Streptococcus faecalis A20688; format: cell-based; settings: Str. faecalis A20688; overnight 37° C.
Text: as §1

E. coli A-15119 = test: MIC, tube dilution, Escherichia coli A15119; format: cell-based; settings: Escherichia coli, A15119, E. coli A15119; overnight 37° C.; read-out: Minimum Inhibitory Concentration (M.I.C.)
Text: as §1

E. coli A-20341-1 = test: MIC, tube dilution, Escherichia coli A20341-1; format: cell-based; settings: Escherichia coli, A203411, E. coli A20341-1; overnight 37° C.; read-out: Minimum Inhibitory Concentration (M.I.C.)
Text: as §1

K. pneumoniae A-15130 = test: MIC, tube dilution, Klebsiella pneumoniae A15130; format: cell-based; settings: Klebsiella pneumoniae, A15130, K. pneumoniae A15130; overnight 37° C.; read-out: Minimum Inhibitory Concentration (M.I.C.)
Text: as §1

[4] = test system: Klebsiella species A20468; test: MIC, tube dilution, Klebsiella species A20468; format: cell-based; settings: Klebsiella species (K. pneumoniae) A20468; overnight 37° C.; read-out: Minimum Inhibitory Concentration (M.I.C.)
Text: as §1

Pr. mirabilis A-9900 = test: MIC, tube dilution, Proteus mirabilis A9900; format: cell-based; settings: Proteus mirabilis A9900; overnight 37° C.
Text: as §1

Pr. morganii A-15153 = test: MIC, tube dilution, Proteus morganii A15153; format: cell-based; settings: Proteus morganii A15153; overnight 37° C.
Text: as §1

Ser. marcescens A-20019 = test: MIC, tube dilution, Serratia marcescens A20019; format: cell-based; settings: Serratia marcescens A20019; overnight 37° C.
Text: as §1

Ent. cloacae A-9659 = test: MIC, tube dilution, Enterobacter cloacae A9659; format: cell-based; settings: Enterobacter cloacae A9659; overnight 37° C.
Text: as §1

Ent. cloacae A-9656 = test: MIC, tube dilution, Enterobacter cloacae A9656; format: cell-based; settings: Enterobacter cloacae A9656; overnight 37° C.
Text: as §1

Ps. aeruginosa A-9843A = test: MIC, tube dilution, Pseudomonas aeruginosa A9843A; format: cell-based; settings: Pseudomonas aeruginosa, A9843A, read-out: Minimum Inhibitory Concentration (M.I.C.), Pseudomonas aeruginosa A9843A; overnight 37° C.
Text: as §1

Ps. aeruginosa A-21213 = test: MIC, tube dilution, Pseudomonas aeruginosa A21213; format: cell-based; settings: Pseudomonas aeruginosa, A21213, Pseudomonas aeruginosa A21213; overnight 37° C.; read-out: Minimum Inhibitory Concentration (M.I.C.)
Text: as §1

Proteus rettgeri A21203 = test: MIC, tube dilution, Proteus rettgeri A21203; format: cell-based; settings: Proteus rettgeri A21203; overnight 37° C.
Text: as §1

Proteus vulgaris A21559 = test: MIC, tube dilution, Proteus vulgaris A21559; format: cell-based; settings: Proteus vulgaris A21559; overnight 37° C.
Text: as §1

E. coli A15119 = test: In vivo protection of mice, lethal infection with E. coli A15119; settings: Escherichia coli, IM, 2 treatments, 7.8 × 10^5 organisms, read-out: PD50
Protocol: (§2) Representative compounds of the present invention were also tested in vivo in mice and their PD50 (dose of compound in mg/kg required to protect 50% of the treated mice against an otherwise lethal infection of a micro-organism) values determined with respect to the test organisms shown below.

S. aureus A9537 = test: In vivo protection of mice, lethal infection with S. aureus A9537; settings: IM, 2 treatments, 9.1 × 10^5 organisms; listed as Ex. 98 (isomer A)
Protocol: as §2

Structure (SMILES): NC1CCC(C2=C(C(=O)O)N3C(=O)C[C@H]3S2)C1 (single isomer, unassigned) [98 isomer A, 2-(3-Aminocyclopentyl)-penem-3-carboxylic acid]
- Minimum Inhibitory Concentration (M.I.C.) (Str. pneumoniae A-9585): .004 µg/mL
- Minimum Inhibitory Concentration (M.I.C.) (Str. pyogenes A-9604): .004 µg/mL
- Minimum Inhibitory Concentration (M.I.C.) (Staph. aureus A-9537): .03 µg/mL
- Minimum Inhibitory Concentration (M.I.C.) [1]: .13 µg/mL
- MIC [2]: 32 µg/mL (≈ 126 µM)
- MIC [3]: > 63 µg/mL
- Minimum Inhibitory Concentration (M.I.C.) (Str. faecalis A-20688): 4 µg/mL
- MIC (E. coli A-15119): 1 µg/mL (≈ 3.93 µM)
- MIC (E. coli A-20341-1): 16 µg/mL (≈ 62.9 µM)
- MIC (K. pneumoniae A-15130): 4 µg/mL (≈ 15.7 µM)
- MIC [4]: > 63 µg/mL
- Minimum Inhibitory Concentration (M.I.C.) (Pr. mirabilis A-9900): 1 µg/mL
- Minimum Inhibitory Concentration (M.I.C.) (Pr. morganii A-15153): 4 µg/mL
- Minimum Inhibitory Concentration (M.I.C.) (Ser. marcescens A-20019): 2 µg/mL
- Minimum Inhibitory Concentration (M.I.C.) (Ent. cloacae A-9659): 4 µg/mL
- Minimum Inhibitory Concentration (M.I.C.) (Ent. cloacae A-9656): 2 µg/mL
- MIC (Ps. aeruginosa A-9843A): > 63 µg/mL
- MIC (Ps. aeruginosa A-21213): > 63 µg/mL
- Minimum Inhibitory Concentration (M.I.C.) (Proteus rettgeri A21203): 1 µg/mL
- Minimum Inhibitory Concentration (M.I.C.) (Proteus vulgaris A21559): 2 µg/mL
- ED50 (E. coli A15119): 17.4 mg/kg
- PD50 (S. aureus A9537): 0.04 mg/kg/treatment
